{"source": "paper PMC9760738", "about": "“Pharmacokinetics, absorption, distribution, metabolism and excretion of the MEK inhibitor zapnometinib in rats” (Frontiers in Pharmacology, 2022)", "key": {"[1]": {"assay": "Excretion balance of radioactivity after single oral 30 mg/kg [14C]-zapnometinib, Sprague-Dawley rats (Group 2)", "type": "in vivo, rat", "details": "for Total recovery: 0-168 h; for Carcass: 168 h", "method": "Oral doses of [^14C]-zapnometinib were administered as a suspension in 5% DMSO (v/v), 30% PEG 400 (v/v) and 7.5% (w/v) Captisol in water at a dose level of 30 mg/kg to male and female rats by gastric intubation at a dose volume of 4 ml/kg body weight. The selected dose level (30 mg/kg) was below the no observed adverse effect level (100 mg/kg), the formulation was selected based on data obtained in other nonclinical studies. The radioactive dose administered to each animal was quantified from the weight (excretion studies only) or volume of dosing formulation given, and its mean measured radioactivity concentration. The weight of test compound administered to each rat was determined from the radioactive dose administered and the specific activity of the test material.\nTotal excreta from three male and three female rats were collected after single oral doses of [^14C]-zapnometinib. Urine was collected into containers cooled in solid CO2 and feces were collected separately at ambient temperature. Expired air was trapped in 1M potassium hydroxide solution. After completion of the final excreta collection, rats were killed by cervical dislocation following sedation, and the carcasses retained for analysis.\nRadioactivity was measured by liquid scintillation analysis using Wallac® 1409 automatic liquid scintillation counters. Samples were prepared according to the company’s SOP (see Supplementary Methods). Briefly, replicate weighed samples were mixed with Ultima Gold™ scintillation cocktail (PerkinElmer, United States) for the measurement of radioactivity. Radioactivity in amounts less than twice that of the background concentration in the sample under investigation was below the limit of accurate quantification (BLQ). […]\nFor Liquid scintillation analyses, carcasses from rats (Group 2) were solubilized by digestion at ca 55 °C overnight in a solution prepared from sodium hydroxide (80 g) and Triton X-405 (100 mL) in purified water (600 mL) and methanol (300 mL). After measurement of total sample weight (as appropriate), replicate portions of diluted dose solutions (ca 0.1 mL), plasma (ca 0.05 – 0.25 mL), urine (ca 0.05 – 0.25 mL), expired air trap solution (ca 1 mL) and cage wash (ca 1 mL) were mixed directly with Ultima Gold scintillation cocktail (5 mL; 15 mL for air traps) for measurement of radioactivity concentrations. Similarly, replicate weighed portions of digested carcass solutions (ca 1 mL plus 1 mL purified water) were mixed with Ultima Gold (10 mL) scintillation cocktail for measurement of radioactivity concentrations. Feces were weighed, then homogenized to a smooth paste after the addition of an appropriate volume (approximately 1.5 volumes) of purified water and the weight of each homogenate was recorded. Replicate weighed portions of feces (ca 0.2 g) and blood cells (ca. 0.25 g) were placed on Combustocones, which were then capped with cellulose pads and burned in oxygen using […]"}, "[2]": {"assay": "Metabolite profiling of plasma extracts by radio-HPLC (Group 3)", "type": "in vivo, rat", "details": "for concentration at 2 h / concentration at 8 h: rat, plasma, oral, 30 mg/kg, read-out: Concentration in plasma extract", "method": "Metabolite profiling was performed by HPLC analysis according to the company’s SOP of plasma (Group 3), urine (Group 2) and feces (Group 2) samples. Briefly, for metabolite profiling and identification, radioactivity (cpm) was measured in HPLC eluent fractions that had previously been collected at 12 s intervals for the duration of the run (65 min) into 96-well Deep Well LumaPlates and dried in a centrifugal evaporator. A Microbeta2 scintillation counter was used to count each plate, with wells simultaneously counted for 2 min, after an initial 5 min delay. A subsample of plasma was analyzed (ca 2 ml) taken from individual animals to provide representative samples, for each sex, at 2, 8 and 168 h post dose (n = 6). Equal proportions of the total urine weight voided from Group 2 animals was pooled to provide representative samples for each sex at 0–6 h, 6–24 h and 24–48 h post dose (n = 6). Equal proportions of the total feces homogenate generated from the samples voided by the three rats (Group 2) were pooled to provide representative samples for each sex at 0–24 and 24–48 h post dose ([…]). Sample preparation was carried out due to the company’s SOPs (see Supplementary Methods). The extractability was ≥95.0% (95.0–100%) TRR (Total Radioactive Residue) for plasma and ≥88.3% (88.3%–91.3%) TRR for feces. As reference, a standard solution of zapnometinib (0.1 mg/ml in acetonitrile) was used. To assess HPLC method suitability, a column recovery was assessed on each representative sample (one per matrix). The recovery of radioactivity from the HPLC column was determined by collecting the column eluent, following an injection of a representative sample (one per matrix), and determining the radioactive content by submitting aliquots for LSC analysis. The results of these analyses were between 93.8%–105.1% column recoveries.\nNext, radioactive metabolic components of zapnometinib in urine, plasma and feces extracts were isolated and profiled. The components were quantified by fraction collection/scintillation analysis, as appropriate to the radioactivity concentrations. Mass spectroscopy was used to propose identities of the major circulatory and excreted metabolites, and to correlate the metabolites detected in the different matrices. Components identified by LC-MS/MS were related to the quantified HPLC analysis by comparison of related radiochromatograms and comparison of elution order. Representative HPLC radiochromatograms of pooled feces extracts collected during 0–24 and 24–48 h post dose from male and female rats (which reveal the main metabolites) were qualitatively similar with some minor sex differences (Figure 3)."}, "[3]": {"assay": "Plasma protein binding assay, rat plasma", "type": "in vitro ADME", "details": "data not shown"}, "[4]": {"details": "from other nonclinical studies; cited from earlier work"}, "[5]": {"details": "individual males 7M, 8M, 9M, rows in order of periods 0-24, 0-48, 0-72, 0-96, 0-120, 0-144, 0-168 h"}}, "note": "Values joined by “and” are separate entries in the source; they are usually repeats but may differ in a detail not shown here. Equal values may be shown once. Read-outs that look alike come from different tables or passages of the source."}
{"smiles": "O=C(O)c1ccc(F)c(F)c1Nc1ccc(I)cc1Cl", "note": "[zapnometinib, 2-(2-Chloro-4-iodophenylamino)-3,4-difluorobenzoic acid]", "values": [{"measurement": "Cumulative excretion, urine", "setting": "[1]; 0-6 h, male, mean", "value": 0.23, "unit": "% administered dose"}, {"measurement": "Cumulative excretion, faeces", "setting": "[1]; 0-24 h, male, mean", "value": 79.34, "unit": "% administered dose"}, {"measurement": "Cumulative excretion, urine", "setting": "[1]; 0-24 h, male, mean", "value": 2.20, "unit": "% administered dose"}, {"measurement": "Cumulative, cage wash", "setting": "[1]; 0-24 h, male, mean", "value": 0.14, "unit": "% administered dose"}, {"measurement": "Cumulative, expired air", "setting": "[1]; 0-24 h, male, mean", "value": 0.02, "unit": "% administered dose"}, {"measurement": "Cumulative excretion, faeces", "setting": "[1]; 0-48 h, male, mean", "value": 89.32, "unit": "% administered dose"}, {"measurement": "Cumulative excretion, urine", "setting": "[1]; 0-48 h, male, mean", "value": 2.68, "unit": "% administered dose"}, {"measurement": "Cumulative, cage wash", "setting": "[1]; 0-48 h, male, mean", "value": 0.18, "unit": "% administered dose"}, {"measurement": "Cumulative, expired air", "setting": "[1]; 0-48 h, male, mean", "value": 0.02, "unit": "% administered dose"}, {"measurement": "Cumulative excretion, faeces", "setting": "[1]; 0-72 h, male, mean", "value": 90.12, "unit": "% administered dose"}, {"measurement": "Cumulative excretion, urine", "setting": "[1]; 0-72 h, male, mean", "value": 2.77, "unit": "% administered dose"}, {"measurement": "Cumulative, cage wash", "setting": "[1]; 0-72 h, male, mean", "value": 0.19, "unit": "% administered dose"}, {"measurement": "Cumulative, expired air", "setting": "[1]; 0-72 h, male, mean", "value": 0.02, "unit": "% administered dose"}, {"measurement": "Cumulative excretion, faeces", "setting": "[1]; 0-96 h, male, mean", "value": 90.28, "unit": "% administered dose"}, {"measurement": "Cumulative excretion, urine", "setting": "[1]; 0-96 h, male, mean", "value": 2.80, "unit": "% administered dose"}, {"measurement": "Cumulative, cage wash", "setting": "[1]; 0-96 h, male, mean", "value": 0.21, "unit": "% administered dose"}, {"measurement": "Cumulative excretion, faeces", "setting": "[1]; 0-120 h, male, mean", "value": 90.34, "unit": "% administered dose"}, {"measurement": "Cumulative excretion, urine", "setting": "[1]; 0-120 h, male, mean", "value": 2.82, "unit": "% administered dose"}, {"measurement": "Cumulative, cage wash", "setting": "[1]; 0-120 h, male, mean", "value": 0.21, "unit": "% administered dose"}, {"measurement": "Cumulative excretion, faeces", "setting": "[1]; 0-144 h, male, mean", "value": 90.37, "unit": "% administered dose"}, {"measurement": "Cumulative excretion, urine", "setting": "[1]; 0-144 h, male, mean", "value": 2.83, "unit": "% administered dose"}, {"measurement": "Cumulative, cage wash", "setting": "[1]; 0-144 h, male, mean", "value": 0.21, "unit": "% administered dose"}, {"measurement": "Total recovery", "setting": "[1]; female, mean", "value": 98.26, "unit": "% Administered dose"}, {"measurement": "Total recovery", "setting": "[1]; male, mean", "value": 93.72, "unit": "% Administered dose"}, {"measurement": "Carcass", "setting": "[1]; female, mean", "value": 0.19, "unit": "% Administered dose"}, {"measurement": "Carcass", "setting": "[1]; male, mean", "value": 0.20, "unit": "% Administered dose"}, {"measurement": "Radioactivity in carcasses", "setting": "[1]; 168 h post dose, both sexes", "value": "~0.2", "unit": "%"}, {"measurement": "Cumulative, expired air", "setting": "[1]; individual males 7M, 8M, 9M, periods 0-24, 0-48, 0-72 h", "value": 0.02, "unit": "% administered dose"}, {"measurement": "Cumulative excretion, urine", "setting": "[1]; individual males 7M, 8M, 9M, rows in order of periods 0-6, 0-24, 0-48, 0-72, 0-96, 0-120, 0-144, 0-168 h", "value": "0.23 % administered dose and 0.16 % administered dose and 0.30 % administered dose and 2.69 % administered dose and 1.99 % administered dose and 1.92 % administered dose and 3.13 % administered dose and 2.48 % administered dose and 2.43 % administered dose and 3.20 % administered dose and 2.55 % administered dose and 2.56 % administered dose and 3.22 % administered dose and 2.58 % administered dose and 2.61 % administered dose and 3.23 % administered dose and 2.59 % administered dose and 2.63 % administered dose and 3.24 % administered dose (2×) and 2.60 % administered dose (2×) and 2.64 % administered dose and 2.65 % administered dose"}, {"measurement": "Cumulative excretion, faeces", "setting": "[1]; [5]", "value": "81.33 % administered dose and 77.94 % administered dose and 78.75 % administered dose and 90.61 % administered dose and 88.87 % administered dose and 88.48 % administered dose and 91.30 % administered dose and 89.52 % administered dose and 89.53 % administered dose and 91.37 % administered dose and 89.65 % administered dose and 89.82 % administered dose and 91.41 % administered dose and 89.69 % administered dose and 89.92 % administered dose and 91.44 % administered dose and 89.72 % administered dose and 89.96 % administered dose and 91.46 % administered dose and 89.89 % administered dose and 89.99 % administered dose"}, {"measurement": "Cumulative, cage wash", "setting": "[1]; [5]", "value": "0.14 % administered dose (2×) and 0.16 % administered dose (4×) and 0.11 % administered dose and 0.22 % administered dose and 0.19 % administered dose and 0.23 % administered dose (5×) and 0.20 % administered dose and 0.15 % administered dose and 0.24 % administered dose (3×) and 0.26 % administered dose and 0.17 % administered dose"}, {"measurement": "Proportion in plasma extract", "setting": "[2]; 2 hours, female rats", "value": 97.9, "unit": "% sample"}, {"measurement": "Proportion in plasma extract", "setting": "[2]; 2 hours, male rats", "value": 92.0, "unit": "% sample"}, {"measurement": "Proportion in plasma extract", "setting": "[2]; 8 hours, female rats", "value": 88.7, "unit": "% sample"}, {"measurement": "Proportion in plasma extract", "setting": "[2]; 8 hours, male rats", "value": 92.5, "unit": "% sample"}, {"measurement": "Extractability of plasma radioactivity", "setting": "[2]; all measured time points", "value": "> 90", "unit": "% TRR"}, {"measurement": "Plasma concentration of unchanged zapnometinib", "setting": "[2]; by 168 h post dose", "value": "below the limit of quantification"}, {"measurement": "concentration at 2 h", "setting": "[2]; 2 hours, female rats", "value": 78400, "unit": "ng/g"}, {"measurement": "concentration at 2 h", "setting": "[2]; 2 hours, male rats", "value": 64400, "unit": "ng/g"}, {"measurement": "concentration at 8 h", "setting": "[2]; 8 hours, female rats", "value": 80700, "unit": "ng/g"}, {"measurement": "concentration at 8 h", "setting": "[2]; 8 hours, male rats", "value": 72100, "unit": "ng/g"}, {"measurement": "Protein binding", "setting": "[3]", "value": "high protein binding"}, {"measurement": "Unbound fraction", "setting": "[3]", "value": "very low"}, {"measurement": "No observed adverse effect level", "setting": "[4]", "value": 100, "unit": "mg/kg"}]}
